Reference: patent publication US8288442B2, “Use of derivatives of valproic acid amides and 2-valproenic acid amides for the treatment or prevention of pain and/or headache disorders” (Yissum Research Development Company of The Hebrew …, priority 2000, dated 2012)

Legend:
[1] = system: rat constriction injury model; test: rat chronic constriction injury model of neuropathic pain (cold allodynia); type: in vivo; conditions: read-out: ED50 for reversal of cold allodynia
Method: The anti-pain effects of Compounds 1 and 2 are evaluated in a model for traumatic nerve injury. The specific model is the rat constriction injury model, a commonly accepted model for the evaluation of the potential of a compound to treat chronic neuropathic pain. The end point is whether a compound can reverse cold allodynia in rats following a neuropathic injury. MC may be used as the control.

Chung model = Chung model of neuropathic pain (L5/L6 spinal nerve ligation, tactile allodynia, von Frey filaments); type: in vivo, rat; conditions: 300 mg/kg per os, male Sabra rats
Source text: The potential of Compound 1 to serve as an anti-pain agent was studied in the Chung model (Kim, S. H. and Chung, J. M.). This model is known as a reliable model, predictive for human pain. (Kim, S. H. and Chung, J. M.). In this model, spinal nerves L5 and L6 of the rat are tightly ligated and cut in order to induce neuropathic pain. Male Sabra rats weighing 250-275 g were used throughout the study. Under xylazine-ketamine anesthesia, both the L5 and L6 spinal nerves of one side of the rat were tightly ligated and cut. Pain behavior was measured following operation in all groups using withdrawal latencies of the hind paw to mechanical stimulation with von Frey filaments (tactile allodynia). The mechanical sensitivity of the foot was quantified by the occurrence of foot withdrawal in response to normally innocuous mechanical stimuli. Eight different von Frey filaments ranging from 0.6 to 26 g were used.
The efficacy (antiallodynic effect) of the compound was evaluated (300 mg/kg, per os (oral)) in eight rats at days 7 and 14 postoperation in a double-blind randomized crossover manner. The testing included estimation of time of peak effect following drug administration and measurement of the ability of the compound to decrease tactile allodynia.

[2] = system: plasma protein extravasation; test: migraine model of Moskowitz (plasma protein extravasation into the dura mater); type: in vivo; conditions: control = 100
Source text: Evaluation of the anti-headache effects of Compounds 1 and 2 are followed in the migraine model of Moskowitz (Suzzi, M. C. and Moskowitz, M. A.). In this model, neurogenic inflammation results in the leakage of plasma proteins into the dura matter (plasma protein extravasation), which can be quantified by measuring the leakage of radioactive albumin (Suzzi, M. C. and Moskowitz, M. A.).

Structure (SMILES) | ED50 [1] [mg/kg] | Time of peak effect (Chung model; antiallodynic effect) [min] | Effect on tactile allodynia in comparison to vehicle (Chung model; days 7 and 14 postoperation, significant at 60 min (p=0.0207) and 120 min (p=0.0102)) | Percent Extravasation Compared to Control [2]
CCCC(CCC)C(=O)NCC(N)=O [Compound 1, N-(2-n-propylpentanoyl)glycinamide] | < 500 | 60 | reversed tactile allodynia | <100
CC/C=C(\CCC)C(=O)NCC(N)=O [Compound 2, N-(2-n-propylpent-2-enoyl)glycinamide] | < 500 |  |  | <100
